The target in this test is Factor D (Homo sapiens (Human), UniProt P00746). Briefly: Factor D esterolytic assay. The following applies: Z-Lys-SBzl substrate, 100 mM HEPES, 500 mM NaCl, pH 7.5, 10% DMSO; tested a minimum of three times; read-out: Measured Ki (IC50) Value for Compounds: IC50. It counts as biochemical. The method, then: The IC50 value of a compound (i.e., the concentration of the compound that inhibits 50% of the enzymatic activity) was calculated according to the procedure reported in U.S. Pat. No. 6,653,340 B1, e.g., column 74 (incorporated by reference).
Chain of Factor D (P00746 26-253): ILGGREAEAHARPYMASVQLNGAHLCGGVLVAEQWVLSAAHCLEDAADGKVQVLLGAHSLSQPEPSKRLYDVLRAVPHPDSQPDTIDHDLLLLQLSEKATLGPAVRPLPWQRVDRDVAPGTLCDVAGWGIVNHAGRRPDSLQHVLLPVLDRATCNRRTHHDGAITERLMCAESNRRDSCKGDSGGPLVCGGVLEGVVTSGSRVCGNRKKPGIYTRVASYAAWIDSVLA
Specifically, the compounds were dissolved in a stock solution of DMSO at 10.0 or 100 mM. A portion of this stock solution was added to assay buffer in a final volume of 50 μL. Controls included buffer alone and enzyme solutions to which DMSO was added. Substrate was added to the reaction wells immediately or after incubation at room temperature. The reaction rates were measured spectrophotometrically by the generation of product at 405 nm for 600 sec. Background absorbance at 690 nm was measured and subtracted from the absorbance at 405 nm for each well.
The reaction rate for enzyme alone was compared to the rate of enzyme in the presence of inhibitor and the percent inhibition was calculated as shown below: […]
An established esterolytic assay for the measurement of Factor D activity and inhibition of Factor D activity was used (Kam, C. M.; McRae, B. J.; Harper, J. W.; Niemann, M. A.; Volanakis, J. E.; Powers, J. C. Human complement proteins D, C2, and B Active site mapping with peptide thioester substrates. J Biol. Chem. 1987, 262, 3444-3451). For this assay Z-Lys-SBzl, 1.29 mM (Kim, S.; Narayana, S. V. L; Volanakis, J. E. Mutational analysis of the substrate binding site of human complement Factor D. Biochemistry. 1994, 33, 14393-14399.) was used as the substrate for Factor D ([…]). Hydrolysis of this compound by Factor D liberated a free sulfhydryl group which is then reacted with 5,5′-dithiobis(2nitrobenzoic acid) producing an intense yellow color (Habeeb, A. F. S. A. Reaction of protein sulfhydryl groups with Ellman's Reagent. Methods in Enzymol. 1976, 25, 457-464.). The assays were performed in 96 well microtiter plates and rates of hydrolysis were monitored at 405 nm on a Biotek Synergy H1 plate reader. Hydrolysis rates were reported as change in mOD/min. The assay was conducted in 100 mM HEPES, 500 mM NaCl, pH 7.5 containing 10% DMSO in a final volume of 50 μL per well.
An IC50, a compound concentration which inhibits 50% of the enzymatic activity, was calculated. Compounds in the examples were tested a minimum of three times.
Turning to `NCc1cccc(-c2cc(OCCF)c3occ(COc4ccccc4CC(=O)O)c3c2)c1` [Compound 248f, 2-(2-((5-(3-(aminomethyl)phenyl)-7-(2-fluoroethoxy)benzofuran-3-yl)methoxy)phenyl)acetic acid], the IC50 was less than 1 µM.

With `NCc1cccc(-c2cc(COc3ccc(F)cc3)c3occ(COc4ccccc4CC(=O)O)c3c2)c1` [Compound 143f, 2-(2-((5-(3-(aminomethyl)phenyl)-7-((4-fluorophenoxy)methyl)benzofuran-3-yl)methoxy)phenyl)acetic acid], the IC50 is less than 1 µM.

Regarding `CCOC(=O)Cc1ccccc1OCc1cc2c(-c3cccc(CN)c3)cccc2o1` [Compound 25c, ethyl 2-(2-((4-(3-(aminomethyl)phenyl)benzofuran-2-yl)methoxy)phenyl)acetate], the IC50 is greater than 10 µM.

As to `Cc1ccc(CC(=O)O)c(OCc2nn(C)c3ccc(-c4cccc(CN)c4)cc23)c1` [Compound 206c, 2-(2-((5-(3-(aminomethyl)phenyl)-1-methyl-1H-indazol-3-yl)methoxy)-4-methylphenyl)acetic acid], the IC50 is less than 1 µM.

With `NCc1cccc(-c2ccc3c(c2)c(COc2ccccc2CC(=O)O)nn3C2CCC2)c1` [Compound 298d, 2-(2-((5-(3-(aminomethyl)phenyl)-1-cyclobutyl-1H-indazol-3-yl)methoxy)phenyl)acetic acid], the IC50 is less than 1 µM.

On to `COCCc1oc2ccc(-c3cccc(CN)c3)cc2c1COc1cc(OC)ccc1CC(=O)O` [Compound 238c, 2-(2-((5-(3-(aminomethyl)phenyl)-2-(2-methoxyethyl)benzofuran-3-yl)methoxy)-4-methoxyphenyl)acetic acid], for which the IC50 is less than 1 µM.

For `COc1cc2occ(COc3ccccc3CC(=O)O)c2cc1-c1cccc(CN)c1` [Compound 69f, 2-(2-((5-(3-(aminomethyl)phenyl)-6-methoxybenzofuran-3-yl)methoxy)phenyl)acetic acid], the IC50 is less than 1 µM.

On to `CCOC(=O)Nc1cc(-c2cccc(CN)c2)cc2c(COc3ccccc3CC(=O)O)c(C(=O)O)oc12` [Compound 102c, 5-(3-(aminomethyl)phenyl)-3-((2-(carboxymethyl)phenoxy)methyl)-7-((ethoxycarbonyl)amino)benzofuran-2-carboxylic acid], for which the IC50 was less than 1 µM.

As to `Cc1cc2c(o1)c(-c1cccc(CN)c1)cc1c(COc3ccccc3CC(=O)O)coc12` [Compound 283g, 2-(2-((5-(3-(aminomethyl)phenyl)-7-methylbenzo[1,2-b:3,4-b′]difuran-3-yl)methoxy)phenyl)acetic acid], the IC50 is less than 1 µM.

For the molecule `NCc1cccc(-c2ccc3occ(COc4c(F)cccc4CC(=O)O)c3c2)c1F` [Compound 46b, 2-(2-((5-(3-(aminomethyl)-2-fluorophenyl)benzofuran-3-yl)methoxy)-3-fluorophenyl)acetic acid], the IC50 was less than 1 µM.

As to `NCc1cccc(-c2ccc3occ(COc4c(CC(=O)O)cccc4C(=O)O)c3c2)c1` [Compound 301d, 2-((5-(3-(aminomethyl)phenyl)benzofuran-3-yl)methoxy)-3-(carboxymethyl)benzoic acid], the IC50 is less than 1 µM.

`COc1c(CN)cccc1-c1ccc2c(c1)c(COc1ccccc1CC(=O)O)nn2C(C)C` [Compound 325b, 2-(2-((5-(3-(aminomethyl)-2-methoxyphenyl)-1-isopropyl-1H-indazol-3-yl)methoxy)phenyl)acetic acid]: the IC50 lay in the range of 1 to 10 µM.

As for `CC(C)n1nc(COc2ccccc2CC(=O)O)c2cc(-c3cccc(CN)c3F)ccc21` [Compound 310b, 2-(2-((5-(3-(aminomethyl)-2-fluorophenyl)-1-isopropyl-1H-indazol-3-yl)methoxy)phenyl)acetic acid], the IC50 was less than 1 µM.

For `NCc1cccc(-c2coc3ccc(COc4ccccc4CC(=O)O)cc23)c1` [Compound 38e, 2-(2-((3-(3-(aminomethyl)phenyl)benzofuran-5-yl)methoxy)phenyl)acetic acid], the IC50 was less than 1 µM.

Turning to `NCc1cccc(-c2ccc3[nH]nc(COc4ccccc4CC(=O)O)c3c2)c1` [Compound 81a, 2-(2-((5-(3-(aminomethyl)phenyl)-1H-indazol-3-yl)methoxy)phenyl)acetic acid], the IC50 is less than 1 µM.

Take `Cc1ncc(-c2cc(-c3cccc(CN)c3)cc3c(COc4ccccc4CC(=O)O)coc23)cn1` [Compound 165c, 2-(2-((5-(3-(aminomethyl)phenyl)-7-(2-methylpyrimidin-5-yl)benzofuran-3-yl)methoxy)phenyl)acetic acid]: the IC50 is less than 1 µM.

As for `NCc1cccc(-c2cc(-c3cccc(CN)c3)c3oc(C(=O)O)c(COc4ccccc4CC(=O)O)c3c2)c1` [Compound 58f, 5,7-bis(3-(aminomethyl)phenyl)-3-((2-(carboxymethyl)phenoxy)methyl)benzofuran-2-carboxylic acid], the IC50 is less than 1 µM.

Take `NCc1cccc(-c2ccc3oc(C(=O)NC4CC4)c(COc4ccccc4CC(=O)O)c3c2)c1` [Compound 64h, 2-(2-((5-(3-(aminomethyl)phenyl)-2-(cyclopropylcarbamoyl)benzofuran-3-yl)methoxy)phenyl)acetic acid]: the IC50 is less than 1 µM.

In the case of `NCc1cccc(-c2ccc3occ(C(=O)Nc4ccccc4CC(=O)O)c3c2)c1` [Compound 10c, 2-(2-(5-(3-(aminomethyl)phenyl)benzofuran-3-carboxamido)phenyl)acetic acid], the IC50 is less than 1 µM.

On to `Cc1ccc(CC(=O)O)c(OCc2c3cc(-c4cccc(CN)c4)ccc3nn2C)c1` [Compound 211c, 2-(2-((5-(3-(aminomethyl)phenyl)-2-methyl-2H-indazol-3-yl)methoxy)-4-methylphenyl)acetic acid], for which the IC50 was less than 1 µM.

Take `NCc1cccc(-c2cc(COc3ccccc3CCC(=O)O)cc3cc(COc4ccccc4CC(=O)O)oc23)c1` [Compound 15e, 3-(2-((7-(3-(aminomethyl)phenyl)-2-((2-(carboxymethyl)phenoxy)methyl)benzofuran-5-yl)methoxy)phenyl)propanoic acid]: the IC50 was less than 1 µM.

For the molecule `COc1cc(-c2cccc(CN)c2)cc2c(COc3cc(C)ccc3CC(=O)O)coc12` [Compound 252c, 2-(2-((5-(3-(aminomethyl)phenyl)-7-methoxybenzofuran-3-yl)methoxy)-4-methylphenyl)acetic acid], the IC50 is less than 1 µM.

Regarding `CC(C)n1nc(COc2cccc(C(=O)O)c2)c2cc(-c3cccc(CN)c3)ccc21` [Compound 303d, 3-((5-(3-(aminomethyl)phenyl)-1-isopropyl-1H-indazol-3-yl)methoxy)benzoic acid], the IC50 is greater than 10 µM.

`NCc1cccc(-c2cc(OCc3ccncc3)c3occ(COc4ccccc4CC(=O)O)c3c2)c1` [Compound 166f, 2-(2-((5-(3-(aminomethyl)phenyl)-7-(pyridin-4-ylmethoxy)benzofuran-3-yl)methoxy)phenyl)acetic acid]: the IC50 was less than 1 µM.

Turning to `NCc1cccc(-c2cc(NCC3CCCO3)c3occ(COc4ccccc4CC(=O)O)c3c2)c1` (centres unmarked) [Compound 149d, 2-(2-((5-(3-(aminomethyl)phenyl)-7-(((tetrahydrofuran-2-yl)methyl)amino)benzofuran-3-yl)methoxy)phenyl)acetic acid], the IC50 was less than 1 µM.

In the case of `NCc1cccc(-c2cc(-c3ccc(F)cc3)c3occ(COc4ccccc4CC(=O)O)c3c2)c1` [Compound 221c, 2-(2-((5-(3-(aminomethyl)phenyl)-7-(4-fluorophenyl)benzofuran-3-yl)methoxy)phenyl)acetic acid], the IC50 was less than 1 µM.

On to `COc1ccc(CC(=O)O)c(OCc2c(C(F)F)oc3c(C4CC4)cc(-c4cccc(CN)c4)cc23)c1` [Compound 234d, 2-(2-((5-(3-(aminomethyl)phenyl)-7-cyclopropyl-2-(difluoromethyl)benzofuran-3-yl)methoxy)-4-methoxyphenyl)acetic acid], for which the IC50 was less than 1 µM.

In the case of `CC(C)n1nc(COc2ccccc2CC(=O)O)c2cc(-c3cccc(N)c3)ccc21` [Compound 321c, 2-(2-((5-(3-aminophenyl)-1-isopropyl-1H-indazol-3-yl)methoxy)phenyl)acetic acid], the IC50 fell in the range of 1 to 10 µM.

Consider `CCc1oc2ccc(-c3cccc(CN)c3F)cc2c1COc1cc(OC)ccc1CC(=O)O` [Compound 227b, 2-(2-((5-(3-(aminomethyl)-2-fluorophenyl)-2-ethylbenzofuran-3-yl)methoxy)-4-methoxyphenyl)acetic acid], for which the IC50 was less than 1 µM.

As a reminder, the IC50 is the midpoint of a concentration-inhibition curve.

Source of the values: patent publication US20250186391A1, “ORAL COMPLEMENT FACTOR D INHIBITORS” (BioCryst Pharmaceuticals, Inc., priority 2019, published 2025).
